Bounds are passed on as bounds.

For orientation: IC50 means the concentration that inhibits the measured activity by half.

In the assay the target is T1, hCD38 Enzyme (Homo sapiens, UniProt P28907).
T1 construct: purchased Sino Biological Inc 10818-H08H
T1 sequence (P28907 43-300 limits assumed): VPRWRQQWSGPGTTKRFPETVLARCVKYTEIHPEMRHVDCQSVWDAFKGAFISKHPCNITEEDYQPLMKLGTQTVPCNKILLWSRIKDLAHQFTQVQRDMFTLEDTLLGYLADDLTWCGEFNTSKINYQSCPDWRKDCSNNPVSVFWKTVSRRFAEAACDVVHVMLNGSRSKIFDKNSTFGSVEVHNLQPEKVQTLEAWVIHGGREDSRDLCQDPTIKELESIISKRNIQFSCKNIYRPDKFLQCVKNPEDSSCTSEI
Kind of assay: CD38 hydrolase enzymatic assay. The note with it: rhCD38, ε-NAD substrate, 25° C., point reading time 20 mins; read-out: hCD38 Enzyme inhibition IC50. It is filed as biochemical. On the procedure: Also, a blank sample was prepared with 50 μl of sucrose buffer and no test compounds.
The dynamic reading was performed at 25° C. with excitation light of 300 nm and emission light of 410 nm on the enzyme marker by contacting the above-prepared rhCD38 enzyme working fluid and the above-prepared solutions of the test compounds disclosed herein or the solution of the control. The readings were recorded for a total of 1 hour, and the data were analyzed with the point reading time of 20 mins.
Fluorescence was recorded by a microplate reader. Individual excel files containing fluorescence data were exported and the results were plotted against various drug concentrations and analyzed in GraphPad Prism 7.0 for concentration curve generation.
As to `O=C(Nc1cc(F)cc(N2CCOCC2)c1)c1cc(C(F)(F)F)nc(-n2ccnc2)n1` [compound 176, N-(3-fluoro-5-morpholinophenyl)-2-(1H-imidazol-1-yl)-6-(trifluoromethyl) pyrimidine-4-carboxamide], the IC50 is 20 nM. To `CO[C@H]1CC[C@H](NC(=O)c2cc(-c3cncs3)ccc2NC(C)=O)CC1` [compound 6, 2-acetamido-N-((1r,4r)-4-methoxycyclohexyl)-5-(thiazol-5-yl) benzamide] belongs above 10000 nM. As for `CO[C@H]1CC[C@H](NC(=O)c2cc(-n3ccnc3)cnn2)CC1` [compound 28, 5-(1H-imidazol-1-yl)-N-((1r,4r)-4-methoxycyclohexyl)pyridazine-3-carboxamide], the figure is 22500 nM; as for `CO[C@H]1CC[C@H](NC(=O)c2nc(-n3ccnc3)cnc2O)CC1` [compound 67, 3-hydroxy-6-(1H-imidazol-1-yl)-N-((1r,4r)-4-methoxycyclohexyl)pyrazine-2-carboxamide], above 10000 nM. As to `Cc1cncn1-c1cncc(C(=O)NC2CCCCC2)n1` [compound 79, N-cyclohexyl-6-(5-methyl-1H-imidazol-1-yl)pyrazine-2-carboxamide], the IC50 was found to be 2190 nM. Consider `O=C(Nc1cccc(F)c1)c1ccnc(-n2cccn2)n1` [compound 102, N-(3-fluorophenyl)-2-(1H-pyrazol-1-yl)pyrimidine-4-carboxamide], for which the half-inhibitory concentration (IC50) was above 10000 nM. As for `CC(C)(O)c1ccc(NC(=O)c2cc(C(F)(F)F)nc(-n3ccnc3)n2)cc1F` [Compound 180], the figure is 11 nM; as for `O=C(Nc1cncnc1)c1cc(C(F)(F)F)cc(-n2ccnc2)n1` [compound 192, 6-(1H-imidazol-1-yl)-N-(pyrimidin-5-yl)-4-(trifluoromethyl) picolinamide], 6.1 nM. Regarding `CO[C@H]1CC[C@H](NC(=O)c2cc(N3CCCCC3)nc(-n3ccnc3)n2)CC1` [compound 26, 2-(1H-imidazol-1-yl)-N-((1r,4r)-4-methoxycyclohexyl)-6-(piperidin-1-yl)pyrimidine-4-carboxamide], the IC50 was determined as 46 nM. Turning to `O=C(Nc1cccc(F)c1)c1ccnc(-c2ccn[nH]2)n1` [compound 116, N-(3-fluorophenyl)-2-(1H-pyrazol-5-yl)pyrimidine-4-carboxamide], the IC50 is above 10000 nM. As to `O=C(NC1CCCCC1)c1cncc(-n2ccnc2)n1` [compound 30, N-cyclohexyl-6-(1H-imidazol-1-yl)pyrazine-2-carboxamide], the IC50 amounted to 42 nM. As for `O=C(Nc1ccccn1)c1ccnc(-n2ccnc2)n1` [compound 112, 2-(1H-imidazol-1-yl)-N-(pyridin-2-yl)pyrimidine-4-carboxamide], the figure is 20 nM; as for `O=C(Nc1cc(F)cc(F)c1)c1cc(C(F)(F)F)nc(-n2ccnc2)n1` [compound 174, N-(3,5-difluorophenyl)-2-(1H-imidazol-1-yl)-6-(trifluoromethyl) pyrimidine-4-carboxamide], 5.4 nM. As for `CO[C@H]1CC[C@H](NC(=O)c2nc(-n3ccnc3)cnc2N)CC1` [compound 41, 3-amino-6-(1H-imidazol-1-yl)-N-((1r,4r)-4-methoxycyclohexyl) pyrazine-2-carboxamide], the figure is 13 nM. As for `O=C(Nc1cccc(F)c1)c1cc(N2CCCCC2)nc(-n2ccnc2)n1` [compound 101, N-(3-fluorophenyl)-2-(1H-imidazol-1-yl)-6-(piperidin-1-yl)pyrimidine-4-carboxamide], the figure is 17 nM; as for `N#Cc1cc(C(=O)Nc2cccc(F)c2)nc(-n2ccnc2)n1` [compound 185, 6-cyano-N-(3-fluorophenyl)-2-(1H-imidazol-1-yl) pyrimidine-4-carboxamide], 2 nM. With `CC(C)(C)NC(=O)c1cc(C(F)(F)F)nc(-n2ccnc2)n1` [compound 141, N-(tert-butyl)-2-(1H-imidazol-1-yl)-6-(trifluoromethyl) pyrimidine-4-carboxamide], the half-maximal inhibitory concentration (IC50) is 1030 nM.

Take `O=C(Nc1cc(F)ccc1F)c1cc(N2CCCCC2)nc(-n2ccnc2)n1` [compound 135, N-(2,5-difluorophenyl)-2-(1H-imidazol-1-yl)-6-(piperidin-1-yl)pyrimidine-4-carboxamide]: the IC50 worked out at 36 nM.

For `Cc1ccc(F)cc1NC(=O)c1cc(N2CCCCC2)nc(-n2ccnc2)n1` [compound 137, N-(5-fluoro-2-methylphenyl)-2-(1H-imidazol-1-yl)-6-(piperidin-1-yl)pyrimidine-4-carboxamide], the IC50 is above 10000 nM. `N#Cc1cc(C(=O)Nc2cccnc2)nc(-n2ccnc2)n1` [compound 186, 6-cyano-2-(1H-imidazol-1-yl)-N-(pyridin-3-yl)pyrimidine-4-carboxamide]: the IC50 was determined as 2 nM.

In the case of `CO[C@H]1CC[C@H](NC(=O)c2cccc(-c3cncs3)c2F)CC1` [compound 8, 2-fluoro-N-((1r,4r)-4-methoxycyclohexyl)-3-(thiazol-5-yl)benzamide], the 50% inhibitory concentration (IC50) was above 10000 nM. For the compound `CN1CCC(NC(=O)c2cncc(-n3ccnc3)n2)CC1` [compound 36, 6-(1H-imidazol-1-yl)-N-(1-methylpiperidin-4-yl)pyrazine-2-carboxamide], the IC50 was determined as 9750 nM.

Consider `O=C(Nc1cccnc1)c1ccnc(-n2ccnc2)n1` [compound 66, 2-(1H-imidazol-1-yl)-N-(pyridin-3-yl)pyrimidine-4-carboxamide], for which the IC50 was 1.7 nM. To `O=C(Nc1ccccc1)c1ccnc(-n2ccnc2)n1` [compound 82, 2-(1H-imidazol-1-yl)-N-phenylpyrimidine-4-carboxamide] belongs 3 nM; to `O=C(Nc1cccc(F)c1)c1cc(N2CCOCC2)nc(-n2ccnc2)n1` [compound 114, N-(3-fluorophenyl)-2-(1H-imidazol-1-yl)-6-morpholinopyrimidine-4-carboxamide], 5 nM. To `O=C(Nc1cc(F)cc(N2CCNCC2)c1)c1cc(C(F)(F)F)nc(-n2ccnc2)n1` [compound 175, N-(3-fluoro-5-(piperazin-1-yl)phenyl)-2-(1H-imidazol-1-yl)-6-(trifluoromethyl) pyrimidine-4-carboxamide] belongs 68 nM; to `O=C(NC1CCCCC1)c1cc(N2CCCCC2)cc(-n2ccnc2)n1` [compound 130, N-cyclohexyl-6-(1H-imidazol-1-yl)-4-(piperidin-1-yl)picolinamide], 149 nM; to `O=C(NC1CCOCC1)c1cc(C(F)(F)F)nc(-n2ccnc2)n1` [compound 163, 2-(1H-imidazol-1-yl)-N-(tetrahydro-2H-pyran-4-yl)-6-(trifluoromethyl) pyrimidine-4-carboxamide], 92 nM.

For `O=C(Nc1cccc(F)c1)c1nc(-n2ccnc2)ncc1N1CCCCC1` [compound 115, N-(3-fluorophenyl)-2-(1H-imidazol-1-yl)-5-(piperidin-1-yl) pyrimidine-4-carboxamide], the IC50 worked out at 43 nM. Consider `Cc1ccccc1NC(=O)c1ccnc(-n2ccnc2)n1` [compound 83, 2-(1H-imidazol-1-yl)-N-(o-tolyl)pyrimidine-4-carboxamide], for which the IC50 came out at 132 nM. As for `O=C(Nc1ccccc1)c1cncc(-n2ccnc2)n1` [compound 35, 6-(1H-imidazol-1-yl)-N-phenylpyrazine-2-carboxamide], the figure is 4 nM.
